Assay results as given in ChEMBL document CHEMBL3885881, “DrugMatrix”.

Organism: Rattus norvegicus
Assay: DrugMatrix - Regimen: Daily Repeat
Type: toxicity, organism-based, Sprague-Dawley
Parameters: regimen Daily Repeat, gender Male, age 6-8 weeks
Conditions: in vivo, po, route oral GAVAGE, vehicle .5 % CMC; for ABSOLUTE BASOPHIL / ABSOLUTE EOSINOPHIL / ABSOLUTE LYMPHOCYTE / ABSOLUTE MONOCYTE / ABSOLUTE SEGMENTED NEUTROPHIL / BASOPHIL / EOSINOPHIL / ERYTHROCYTE COUNT / HEMATOCRIT / HEMOGLOBIN / LEUKOCYTE COUNT / LYMPHOCYTE / MEAN CORPUSCULAR HEMOGLOBIN / MEAN CORPUSCULAR HEMOGLOBIN CONCENTRATION / MEAN CORPUSCULAR VOLUME / MONOCYTE / NEUTROPHIL / NUCLEATED RED BLOOD CELLS / PLATELET COUNT: tissue Blood; for ALANINE AMINOTRANSFERASE / ALBUMIN / ALKALINE PHOSPHATASE / ASPARTATE AMINOTRANSFERASE / BLOOD UREA NITROGEN / CARBON DIOXIDE / CHLORIDE / CHOLESTEROL / CREATINE PHOSPHOKINASE / CREATININE / GLUCOSE / LACTATE DEHYDROGENASE / LIPASE / PHOSPHORUS / POTASSIUM / SODIUM / TOTAL BILIRUBIN / TOTAL PROTEIN / URIC ACID: tissue Plasma
[1] = 0 mg/kg, 72 h, dose level Control, time 3 day
[2] = 0 mg/kg, 120 h, dose level Control, time 5 day
[3] = 50 mg/kg, 72 h, dose level Low, time 3 day

SMILES: CC1(C)[C@H]2CC[C@]1(C)C(=O)C2 [(-)-CAMPHOR]
- ABSOLUTE BASOPHIL [1]: 0 CELLS/uL
- ABSOLUTE EOSINOPHIL [1]: 222.83 CELLS/uL
- ABSOLUTE LYMPHOCYTE [1]: 14453 CELLS/uL
- ABSOLUTE MONOCYTE [1]: 0 CELLS/uL
- ABSOLUTE SEGMENTED NEUTROPHIL [1]: 1490.83 CELLS/uL
- BASOPHIL [1]: 0%
- EOSINOPHIL [1]: 1.33%
- ERYTHROCYTE COUNT [1]: 5.76 x10E6/uL
- HEMATOCRIT [1]: 36.52%
- HEMOGLOBIN [1]: 13.45 G/DL
- LEUKOCYTE COUNT [1]: 16.17 x10E3/uL
- LYMPHOCYTE [1]: 89.33%
- MEAN CORPUSCULAR HEMOGLOBIN [1]: 23.37 pg
- MEAN CORPUSCULAR HEMOGLOBIN CONCENTRATION [1]: 36.85 G/DL
- MEAN CORPUSCULAR VOLUME [1]: 63.47 fL
- MONOCYTE [1]: 0%
- NEUTROPHIL [1]: 9.33%
- NUCLEATED RED BLOOD CELLS [1]: 0 /100WBC
- PLATELET COUNT [1]: 1239.5 x10E3/uL
- ALANINE AMINOTRANSFERASE [1]: 43.83 u/L
- ALBUMIN [1]: 4.27 G/DL
- ALKALINE PHOSPHATASE [1]: 398.83 u/L
- ASPARTATE AMINOTRANSFERASE [1]: 81.17 u/L
- BLOOD UREA NITROGEN [1]: 17.67 mg/dL
- CARBON DIOXIDE [1]: 27.5 mmol/L
- CHLORIDE [1]: 99.17 MEQ/L
- CHOLESTEROL [1]: 74 mg/dL
- CREATINE PHOSPHOKINASE [1]: 331.5 u/L
- CREATININE [1]: 0.2 mg/dL
- GLUCOSE [1]: 171.33 mg/dL
- LACTATE DEHYDROGENASE [1]: 241.67 u/L
- LIPASE [1]: 9.5 u/L
- PHOSPHORUS [1]: 12.25 mg/dL
- POTASSIUM [1]: 6.33 MEQ/L
- SODIUM [1]: 141.28 MEQ/L
- TOTAL BILIRUBIN [1]: 0.15 mg/dL
- TOTAL PROTEIN [1]: 5.98 G/DL
- URIC ACID [1]: 1.63 mg/dL
- ABSOLUTE BASOPHIL [2]: 0 CELLS/uL
- ABSOLUTE EOSINOPHIL [2]: 148.67 CELLS/uL
- ABSOLUTE LYMPHOCYTE [2]: 16020.5 CELLS/uL
- ABSOLUTE MONOCYTE [2]: 29.17 CELLS/uL
- ABSOLUTE SEGMENTED NEUTROPHIL [2]: 1468.33 CELLS/uL
- BASOPHIL [2]: 0%
- EOSINOPHIL [2]: 1%
- ERYTHROCYTE COUNT [2]: 5.78 x10E6/uL
- HEMATOCRIT [2]: 35.77%
- HEMOGLOBIN [2]: 13.4 G/DL
- LEUKOCYTE COUNT [2]: 17.67 x10E3/uL
- LYMPHOCYTE [2]: 90.5%
- MEAN CORPUSCULAR HEMOGLOBIN [2]: 23.22 pg
- MEAN CORPUSCULAR HEMOGLOBIN CONCENTRATION [2]: 37.47 G/DL
- MEAN CORPUSCULAR VOLUME [2]: 61.92 fL
- MONOCYTE [2]: 0.17%
- NEUTROPHIL [2]: 8.33%
- NUCLEATED RED BLOOD CELLS [2]: 0.17 /100WBC
- PLATELET COUNT [2]: 1255.5 x10E3/uL
- ALANINE AMINOTRANSFERASE [2]: 46.5 u/L
- ALBUMIN [2]: 4.38 G/DL
- ALKALINE PHOSPHATASE [2]: 336 u/L
- ASPARTATE AMINOTRANSFERASE [2]: 76.5 u/L
- BLOOD UREA NITROGEN [2]: 20 mg/dL
- CARBON DIOXIDE [2]: 27.5 mmol/L
- CHLORIDE [2]: 101 MEQ/L
- CHOLESTEROL [2]: 71.33 mg/dL
- CREATINE PHOSPHOKINASE [2]: 231.83 u/L
- CREATININE [2]: 0.37 mg/dL
- GLUCOSE [2]: 168.83 mg/dL
- LACTATE DEHYDROGENASE [2]: 174 u/L
- LIPASE [2]: 8.67 u/L
- PHOSPHORUS [2]: 11.48 mg/dL
- POTASSIUM [2]: 6.82 MEQ/L
- SODIUM [2]: 143.8 MEQ/L
- TOTAL BILIRUBIN [2]: 0.2 mg/dL
- TOTAL PROTEIN [2]: 5.98 G/DL
- URIC ACID [2]: 1.83 mg/dL
- ABSOLUTE BASOPHIL [3]: 0 CELLS/uL
- ABSOLUTE EOSINOPHIL [3]: 203.67 CELLS/uL
- ABSOLUTE LYMPHOCYTE [3]: 12113.67 CELLS/uL
- ABSOLUTE MONOCYTE [3]: 0 CELLS/uL
- ABSOLUTE SEGMENTED NEUTROPHIL [3]: 916 CELLS/uL
- BASOPHIL [3]: 0%
- EOSINOPHIL [3]: 1.33%
- ERYTHROCYTE COUNT [3]: 5.4 x10E6/uL
- HEMATOCRIT [3]: 33.83%
- HEMOGLOBIN [3]: 12.8 G/DL
- LEUKOCYTE COUNT [3]: 13.23 x10E3/uL
- LYMPHOCYTE [3]: 91.33%
- MEAN CORPUSCULAR HEMOGLOBIN [3]: 23.7 pg
- MEAN CORPUSCULAR HEMOGLOBIN CONCENTRATION [3]: 37.87 G/DL
- MEAN CORPUSCULAR VOLUME [3]: 62.67 fL
- MONOCYTE [3]: 0%
- NEUTROPHIL [3]: 7.33%
- NUCLEATED RED BLOOD CELLS [3]: 0 /100WBC
- PLATELET COUNT [3]: 1197.67 x10E3/uL
- ALANINE AMINOTRANSFERASE [3]: 45.67 u/L
- ALBUMIN [3]: 4.13 G/DL
- ALKALINE PHOSPHATASE [3]: 348.67 u/L
- ASPARTATE AMINOTRANSFERASE [3]: 71.33 u/L
- BLOOD UREA NITROGEN [3]: 13.33 mg/dL
- CARBON DIOXIDE [3]: 28.67 mmol/L
- CHLORIDE [3]: 99.67 MEQ/L
- CHOLESTEROL [3]: 58 mg/dL
- CREATINE PHOSPHOKINASE [3]: 220.33 u/L
- CREATININE [3]: 0.19 mg/dL
- GLUCOSE [3]: 174.67 mg/dL
- LACTATE DEHYDROGENASE [3]: 227.67 u/L
- LIPASE [3]: 8 u/L
- PHOSPHORUS [3]: 12.33 mg/dL
- POTASSIUM [3]: 6.44 MEQ/L
- SODIUM [3]: 143.07 MEQ/L
- TOTAL BILIRUBIN [3]: 0.23 mg/dL
- TOTAL PROTEIN [3]: 5.67 G/DL
- URIC ACID [3]: 1.7 mg/dL
